Laboratory results as given in patent US20210368793A1, “Method for Controlling PPO Resistant Weeds” (BASF SE, priority 2016, published 2021).

How the values were obtained:
Assay type in all cases: in vivo
[1] = system: Amaranthus tamariscinus (common waterhemp, AMATA), sensitive biotype (w.1); experiment: Greenhouse herbicidal test, sensitive common waterhemp (w.1); conditions: for Weed control (%) w.1: sensitive biotype, scale 0 (no damage) to 100 (complete destruction)
Text: (§1) The culture containers used were plastic flowerpots containing loamy sand with approximately 3.0% of humus as the substrate. The seeds of the test plants were sown separately for each species and/or resistant biotype. For the pre-emergence treatment, the active ingredients, which had been suspended or emulsified in water, were applied directly after sowing by means of finely distributing nozzles. The containers were irrigated gently to promote germination and growth and subsequently covered with transparent plastic hoods until the plants had rooted. This cover caused uniform germination of the test plants, unless this had been impaired by the active ingredients. For the post-emergence treatment, the test plants were first grown to a height of 3 to 15 cm, depending on the plant habit, and only then treated with the active ingredients which had been suspended or emulsified in water. For this purpose, the test plants were either sown directly and grown in the same containers, or they were first grown separately as seedlings and transplanted into the test containers a few days prior to treatment. Depending on the species, the plants were kept at 10-25° C. or 20-35° C., respectively. The test period extended over 2 to 4 weeks. During this time, the plants were tended, and their response to the individual treatments was evaluated. The evaluation was carried out by using a scale from 0 to 100. 100 means no emergence of the plants or complete destruction of at least the above-ground parts, and 0 means no damage, or normal course of growth.
(§2) The plants used in the greenhouse experiments were of the following species and biotype: […]

[2] = system: Amaranthus tamariscinus (common waterhemp, AMATA), PPO resistant biotype 1 containing the ΔG210 mutation (w.2); experiment: Greenhouse herbicidal test, PPO resistant common waterhemp biotype 1 (w.2); conditions: for activity on resistant weeds (w.2), in words: summary of the table, 2 and 4 g/ha, ΔG210 mutation; for Weed control (%) w.2: PPO resistant biotype 1 (ΔG210), scale 0 to 100
Text: as §1, §2

[3] = system: Amaranthus tamariscinus (common waterhemp, AMATA), PPO resistant biotype 2 containing the ΔG210 mutation (w.3); experiment: Greenhouse herbicidal test, PPO resistant common waterhemp biotype 2 (w.3); conditions: for activity on resistant weeds (w.3), in words: summary of the table, 2 and 4 g/ha, ΔG210 mutation; for Weed control (%) w.3: PPO resistant biotype 2 (ΔG210), scale 0 to 100
Text: as §1, §2

| SMILES | Weed control (%) w.1 ([1]; use rate 2 g/ha) [%] | Weed control (%) w.1 ([1]; use rate 4 g/ha) [%] | activity on resistant weeds (w.2), in words [2] | Weed control (%) w.2 ([2]; use rate 2 g/ha) [%] | Weed control (%) w.2 ([2]; use rate 4 g/ha) [%] | activity on resistant weeds (w.3), in words [3] | Weed control (%) w.3 ([3]; use rate 2 g/ha) [%] | Weed control (%) w.3 ([3]; use rate 4 g/ha) [%] | activity on sensitive weeds (w.1), in words ([1]; summary of the table, 2 and 4 g/ha) |
| --- | --- | --- | --- | --- | --- | --- | --- | --- | --- |
| C#CCOc1cc(-n2nc3n(c2=O)CCCC3)c(Cl)cc1Cl [azafenidin, reference compound] | 88 | 100 | much weaker control of resistant in comparison to sensitive biotypes | 62 | 78 | much weaker control of resistant in comparison to sensitive biotypes | 77 | 77 |  |
| O=C1[C@H]2C[C@H](F)CN2C(=O)N1c1cc(NS(=O)(=O)CCl)c(Cl)cc1F [(I).1, profluazol] | 88 | 100 | very good activity | 78 | 92 | very good activity | 80 | 88 | very good activity |
